{"source": "patent US20250288558A1", "about": "“THERAPEUTIC FOR SPINAL CORD INJURY TO INDUCE HYPOTHERMIA” (The Trustees of Indiana University, priority 2024, published 2025)", "key": {"[1]": {"tested_on": "mice with moderate T9 contusive SCI", "source_text": "Therefore, we compared the functional outcomes of Dex treated SCI mice with SCI only mice using multiple behavior tests post-trauma. C57 BL/6 wild type mice (female) at age of 8 weeks were randomly assigned into three different groups, including sham, SCI, and SCI+Dex. Then the moderate T9 contusive SCI was introduced in two injury groups using LISA injury model. Mice in sham and SCI only group were put on the heating pad to maintain their normal body temperature, while mice in Dex treated group were exposed in ambient room temperature of 24.5° C. for hypothermia during whole surgery and recovery process. One hour after injury, one dose of Dex (100 μg/kg) was IP administrated to rapidly induce early moderate to modest therapeutic hypothermia (30-32° C.). All mice body temperature were measured by rectal probe every 30 minutes to monitor the hypothermia after surgery till the mice fully waked up and back to normothermia. After SCI injury, at different time, multiple behavioral tests, were applied to examine functional outcomes and the potential neuroprotective effects of Dex treatment (FIG. 3A). The Basso Mouse Scale (BMS) was a reliable measurement that developed to examine the locomotion in spinal cord injured mice. It has been widely used in mouse functional evaluation and serves as an indicator of recovery. This test examines different locomotor categories such as paralysis, weight support, stepping, trunk stability, and so on. The scores ranged from 9 to 0 that represent normal movement to complete paralysis, respectively. Three days prior surgery, the BMS scores of all mice in different groups were measured. Only mice with 9 score were kept. The mice with score lower than 9 were replaced to make sure mice in different groups had same baseline of locomotion. After surgery, the BMS score was repeatedly measured at 3 days, 1 week, 2 weeks, 3 weeks, 4 weeks, 5 weeks, and 6 weeks (FIG. 3B).\nContusive spinal cord injury: Adult female C57BL/6 mice (8 weeks old, 18-22 g) were purchased from The Jackson Laboratory (Bar Harbor, ME). Depending on different injury model, mice were either randomly divided into three groups: sham, SCI+heating pad, and SCI+Dex for LISA injury model, or were randomly divided into four groups: sham, SCI+heating pad, SCI+Dex, and SCI+Conventional hypothermia for Infinite Horizons (IH) model. […] All animal care, handling, and surgery were performed in accordance with the Guide for the Care and Use of Laboratory Animals (National Research Council) and the Guidelines of the Institutional Animal Care and Use Committee of Indiana University School of Medicine. Spinal cord contusion was made at the thoracic (T9) vertebral level. After avertin anesthesia, animals will be placed on a thermometer-controlled heating pad for the duration of recovery (except Dex and conventional hypothermia treated group). For LISA injury model, C57/6J mice were anesthetized. A midline skin incision was made to expose the thoracolumbar spine, followed by the removal of the T9 spinous process and lamina to expose the dura mater. The displacement was set to be 0.5 mm. The T9 contusion injury was performed using a LISA impactor, where the injury level was determined using a laser sensor. After injury confirmation, the surgical area is sutured, the animal is hydrated and monitored for post-operative care, including analgesia and bladder expression. For IH model, a 1-inch skin incision was placed on the dorsal midline, musculature was retracted, and then the spinal column was visualized and placed into a stabilizer with two clamps retracting the spinous processes of the vertebrae directly surrounding the injury site. A laminectomy was performed to expose the dura."}, "[2]": {"tested_on": "mouse with a SCI", "protocol": "Referring to FIGS. 5A-5C, to evaluate the coordination of bladder and external urethral sphincter, urodynamic recordings were performed. Bladder cystometrograph (CMG) and external urethral sphincter electromyography (EMG) were co-recorded. The peak intravesical pressure in CMG indicates the contraction of bladder detrusor. The bursting signal in external urethral sphincter EMG is a sign of relaxation of external urethral sphincter. The coordination of bladder and external urethral sphincter was reflected by the synchronization of two signals. […] In chronically injured mice, restoration of reflex external urethral sphincter relaxation correlates with the re-appearance of external urethral sphincter bursting. Therefore, external urethral sphincter bursting is a good indicator of external urethral sphincter functional recovery after SCI in mice."}}, "note": "Where a name gives a salt, the structure may show the parent alone.", "data": [{"smiles": "Cc1cccc([C@H](C)c2cnc[nH]2)c1C", "note": "[Dex, dexmedetomidine hydrochloride]", "values": [{"measurement": "locomotion recovery (BMS) compared to none-treatment SCI group", "setting": "[1]; FIG. 3B, female, n=10", "value": "better locomotion recovery"}, {"measurement": "improvement of locomotor function in BMS test", "setting": "[1]; compared with about 25% for hypothermia alone (meta-analysis)", "value": 70, "unit": "%"}, {"measurement": "BMS score compared to SCI only group", "setting": "[1]; day 3 post-injury, Dex 100 μg/kg IP one hour after injury", "value": "did not show the significant difference"}, {"measurement": "average BMS score", "setting": "[1]; one week after surgery, Dex 100 μg/kg IP", "value": "~5"}, {"measurement": "increase of BMS score compared to SCI only group", "setting": "[1]; week 6 (end of test)", "value": "over 65%"}, {"measurement": "BMS score", "setting": "[1]; week 6 (end of test), Dex 100 μg/kg IP", "value": "about 7.8"}, {"measurement": "voiding efficiency", "setting": "[2]; n=5, p<0.05 vs. SCI group", "value": "15.9±6.6", "unit": "%"}, {"measurement": "bladder capacity", "setting": "[2]; p<0.05 vs. SCI group", "value": "0.56 ± 0.31", "unit": "mL"}, {"measurement": "synchronization of bladder CMG and external urethral sphincter EMG signals", "setting": "[2]; vs. SCI", "value": "enhanced the synchronization"}]}]}
